The values below come from patent US20240166770A1, “COMPOSITIONS AND METHODS FOR INHIBITION OF CELL-PENETRATING ANTIBODIES” (Yale University, priority 2019, published 2024).

In data set [1] the target is T1, ENT2 (Homo sapiens, UniProt Q14542).
T1 sequence (Q14542 1-456): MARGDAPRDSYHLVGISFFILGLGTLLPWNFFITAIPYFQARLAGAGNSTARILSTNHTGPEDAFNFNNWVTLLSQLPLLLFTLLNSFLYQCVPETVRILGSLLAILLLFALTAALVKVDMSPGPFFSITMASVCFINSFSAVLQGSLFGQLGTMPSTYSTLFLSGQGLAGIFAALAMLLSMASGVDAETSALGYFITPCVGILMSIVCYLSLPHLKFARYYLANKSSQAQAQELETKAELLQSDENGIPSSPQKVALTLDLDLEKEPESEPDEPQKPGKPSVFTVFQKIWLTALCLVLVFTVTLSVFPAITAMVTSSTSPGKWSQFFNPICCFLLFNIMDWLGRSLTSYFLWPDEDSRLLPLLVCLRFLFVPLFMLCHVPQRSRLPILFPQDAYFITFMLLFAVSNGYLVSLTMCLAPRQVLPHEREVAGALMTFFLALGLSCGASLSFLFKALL
To be noted: Table 1, different ring systems at the 4- and 8-positions; cited from earlier work.

Data set [2] addresses T2, hENT4 (Homo sapiens, UniProt Q7RTT9).
T2 sequence (Q7RTT9 1-530): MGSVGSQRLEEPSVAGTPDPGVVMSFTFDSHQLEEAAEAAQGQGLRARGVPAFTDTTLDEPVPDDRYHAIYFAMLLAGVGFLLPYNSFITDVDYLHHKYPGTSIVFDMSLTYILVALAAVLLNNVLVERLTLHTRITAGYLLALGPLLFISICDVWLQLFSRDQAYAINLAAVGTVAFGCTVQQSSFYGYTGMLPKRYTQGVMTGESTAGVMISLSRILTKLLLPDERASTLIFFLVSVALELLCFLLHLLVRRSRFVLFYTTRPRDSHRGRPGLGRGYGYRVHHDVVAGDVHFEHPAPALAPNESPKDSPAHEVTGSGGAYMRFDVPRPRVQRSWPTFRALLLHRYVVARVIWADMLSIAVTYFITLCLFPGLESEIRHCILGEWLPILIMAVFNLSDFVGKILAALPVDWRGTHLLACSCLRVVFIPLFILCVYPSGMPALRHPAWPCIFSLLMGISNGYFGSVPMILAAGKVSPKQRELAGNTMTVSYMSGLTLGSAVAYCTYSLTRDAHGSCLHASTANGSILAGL
The settings on record: Table 1, different ring systems at the 4- and 8-positions; cited from earlier work.

The target of data set [3] is T1, ENT2. The settings on record: cited from earlier work; for Ki: Visser et al. 2002.
Data set [4] concerns the target T2, hENT4. The settings on record: cited from earlier work.
Data set [5] addresses T1, ENT2. The settings on record: ENT2-dependent transduction; cited from earlier work.
Data set [6] has as its system TNBC brain metastases (231-BR cells). It counts as in vivo. The settings on record: 20 mg/kg tail vein 3x/week for 4 weeks. As to the method:
TNBC brain metastases were generated in mice by intracardiac injection of luciferase-expressing 231-BR cells. Mice were treated with tail vein injection of control (PBS) or h3E10 di-scFv (20 mg/kg) 3×/week for 4 weeks, and brain metastases were tracked by IVIS.

For data set [7], the system named is hCMEC/D3 Transwell filter BBB model. In words: Transwell filter model of the human BBB (hCMEC/D3 and normal human astrocytes). In kind it is in vitro ADME. To be noted: basolateral chamber one hour after addition to apical chamber, western blot. On the technique in general: In western blotting, separated proteins are transferred to a membrane and probed.

The term IC50 denotes the point on the concentration scale where inhibition reaches its midpoint. As a reminder, the Ki is the dissociation constant of the complex between target and ligand, obtained from inhibition or displacement.

Where two headings read alike, the source gives them in different places.

Take `OCCN(CCO)c1nc(N2CCCCC2)c2nc(N(CCO)CCO)nc(N3CCCCC3)c2n1` [Dipyridamole, 2,6-bis-(diethanolamino)-4,8-di-piperidino-pyrimidopyrimidine]: the concentration for half-maximal inhibition (IC50) on ENT2 [1] was 308 nM; on hENT4 [2], 2800 nM. In addition, the Ki at ENT2 [3] is 6200 nM. The “inhibition of hENT4 (in words)” value was “only weakly inhibits” on hENT4 [4] and “moderate inhibitors” on hENT4 [4] (listed as dipyridamole).

As for `O=[N+]([O-])c1ccc(CSc2ncnc3c2ncn3[C@@H]2O[C@H](CO)[C@@H](O)[C@H]2O)cc1` [NBMPR], the IC50 is 1350 nM at ENT2 [1]; 2330 nM on hENT4 [2]; 2800 nM at ENT2 [3] (Ward et al. 2000, SenGupta et al. 2002). The “inhibition of hENT4 (in words)” value on hENT4 [4] is “moderate inhibitors”. The “inhibition of intranuclear transduction of mouse 3E10 Fv” value on ENT2 [5] is given as “inhibited”.

`COc1cc(C(=O)OCCCN2CCCN(CCCOC(=O)c3cc(OC)c(OC)c(OC)c3)CC2)cc(OC)c1OC` [dilazep]: the Ki at ENT2 [3] was 134000 nM.

B1: h3E10 di-scFv: modified, humanized 3E10 lupus autoantibody di-scFv, SEQ ID NO:70, Variant 13 (protein)
scFv: DIQMTQSPSSLSASLGDRATITCRASKTVSTSSYSYMHWYQQKPGQPPKLLIKYASYLESGVPSRFSGSGSGTDFTLTISSLQPEDAATYYCQHSREFPWTFGGGTKVEIKRADAAPGGGGSGGGGSGGGGSEVQLVESGGGLVQPGGSLRLSCAASGFTFSNYGMHWVRQAPGKGLEWVSYISSGSSTIYYADSVKGRFTISRDNAKNSLYLQMNSLRAEDTAVYYCARRGLLLDYWGQGTTVTVSSASTKGPSVFPLAPLESSGSDIQMTQSPSSLSASLGDRATITCRASKTVSTSSYSYMHWYQQKPGQPPKLLIKYASYLESGVPSRFSGSGSGTDFTLTISSLQPEDAATYYCQHSREFPWTFGGGTKVEIKRADAAPGGGGSGGGGSGGGGSEVQLVESGGGLVQPGGSLRLSCAASGFTFSNYGMHWVRQAPGKGLEWVSYISSGSSTIYYADSVKGRFTISRDNAKNSLYLQMNSLRAEDTAVYYCARRGLLLDYWGQGTTVTVSS
Regarding B1, in data set [6], the “growth of brain metastases (radiance by IVIS)” value is given as “Suppresses Tumor Growth”. Besides, the median survival in data set [6] (control 38 days, P<0.02) is reported as 52 days. In data set [7], the “transport of h3E10 di-scFv across Transwell filter BBB model” value is listed as “crosses”.
